Source: paper PMC8395335, “Serotonergic–Muscarinic Interaction within the Prefrontal Cortex as a Novel Target to Reverse Schizophrenia-Related Cognitive Symptoms” (International Journal of Molecular Sciences, 2021)

What was measured:
MK-801-treated mice = test: Y-maze test (spontaneous alternations), MK-801-induced deficits; assay type: in vivo; conditions: for Reversal of MK-801-induced disruptions in Y-maze by combined administration: 7 days; for Effect of combined administration on spontaneous alternations in the Y-maze test: MK-801-treated
Protocol: Drugs were administered on two different schedules: (1) acute administration of compounds 45 min (WAY100635—5-HT1A antagonist) or 30 min (VU0357017, VU152100, VU0238429, and F15599) before MK-801 (also administered once 30 min before the test in Y-maze or T1 in NOR test); and (2) prolonged administration (once per day for 7 consecutive days) of the compounds and MK-801 with the last administration 24 h before the test (NOR test) or at the day of the test (Y-maze). […] Schedules of administration are presented graphically in Figure 2. The subeffective doses of the compounds for acute administration in the NOR test were chosen based on our previous research (see: [22, 23]) while dose-dependent studies of the activity of the compounds in reversing disruptions in the Y-maze or after prolonged administration along with MK-801 were performed within this study. Different vehicles were used throughout the study: (1) 0.9% NaCl and (2) 10% Tween 80. Vehicles were administered to all animals (e.g., control mice and MK-801-treated mice) on the same schedule as drugs were administered to the appropriate drug-treated groups of mice. Neither solvent exerted effects on animal behavior.
Male Albino Swiss mice (Charles River, Sulzfeld, Germany) weighing 20–25 g at the beginning of the experiments were used in the studies. The animals were housed in a room with a 12:12 h light-dark cycle at a temperature of 22 ± 1 °C with food and water available ad libitum. The experimental groups consisted of 8–10 animals. All drugs were administered intraperitoneally (i.p.) at a volume of 10 mL/kg. The behavioral experiments were performed by an observer who was blinded to the treatment. The procedures were conducted in accordance with the European Communities Council Directive of 22 September 2010 (2010/63/EU) and Polish legislation acts concerning animal experimentation and were approved by the II Local Ethics Committee by the Maj Institute of Pharmacology, Polish Academy of Sciences in Krakow (15/2020, 240/2020).
In acute experiments, the tested compounds (alone or in combination) were administered 30 min before MK-801 (0.3 mg/kg), which was administered 30 min before the test or training trial (T1) in the NOR test. In chronic experiments, the tested compounds (alone or in combination) and MK-801 were administered for seven days. Behavioral tests were performed on the eighth day.
The Y-maze was performed using the methods described by Miedel et al. and Kraeuter et al. with minor modifications. A black, wooden Y-shaped apparatus with equal length arms (labeled A, B, or C) spaced 120 apart was used in the behavioral experiment. Visual clues were placed inside the maze and mounted to the back wall of each arm. The experiment was performed in a well-lit room. The mice were placed in the same starting arm and were allowed to freely explore the maze for 8 min. After each trial, the maze was wiped clean. The sequence and the number of arm entries were recorded to calculate the percentage of spontaneous alternations using the following formula: [(Number of alternations)/(Total arm entries − 2)] × 100. An arm entry was scored if the animal entered the arm with all paws. Consecutive entries into three distinct arms were scored as an alternation (e.g., ACB, but not ACA) in which sequences could overlap (e.g., ACBACABAC represents […] alternations).

in vivo = test: in vivo; design: species or system mice; conditions: mouse
Protocol: The experiment was performed using the methods described by Bridges et al. and in our previous studies.
The pharmacokinetic analysis was performed in the blood and prefrontal cortex. […] Plasma and FC samples were stored at −80 °C until analysis.
The drug was administered at a dose of 0.1 mg/kg; brain and tissue samples were collected 15, 30, 60, and 120 min after administration.
On the day of analysis, frozen whole mouse brain tissues were weighed and homogenized in 1:2 (w/v) volumes of ice-cold acetonitrile containing 0.1% FA and the internal standard mix. Samples were homogenized using a Metal Bead Lysing Matrix, vortexed for 1 min, shaken for 20 min at 4 °C on Thermomixer C, and centrifuged at 14,000× g rpm for 20 min at 4 °C. Finally, 50 µL of supernatant were diluted with 0.1% FA in water (1:1, v/v) and analyzed using HPLC/MS/MS.
The sample extraction of plasma (20 μL) was performed after spiking with the internal standard mix using the protein precipitation method and three volumes of ice-cold acetonitrile containing 0.1% formic acid. The extract was vortexed, incubated on ice for 20 min and centrifuged at 14,000× g rpm for 20 min at 4 °C. The supernatant was diluted with 0.1% FA in water (1:1, v/v) and analyzed by means of HPLC/MS/MS using a QTRAP 4500 (AB Sciex) mass spectrometer in positive ion mode in Multiple Reaction Monitoring (MRM screening) coupled with UHPLC (NEXERA XR, Shimadzu). Chromatographic separation was achieved on a Synergi 4 µm Fusion-RP 80 A 50 × 2 mm (Phenomenex) column at a flow rate of 0.2 mL/min. The gradient program was as follows: 20% B (0.3 min), 20–100% B (1.7 min), 100% B (3 min), 100–20% B (0.1 min), 20% B (2 min), solvent A (95:5:0.1% formic acid in water:methanol) and solvent B (methanol containing 0.1% formic acid). The column temperature was set to 40 °C. Analyst software was used to control the instrument and collect data. The ion transfer tube temperature was 300 °C. The spray voltage, collision energy, declastering potential, and gas parameters were optimized to achieve the maximal response using the test compounds. Selected reaction monitoring was carried out using the transition parameters. Calibration curves were constructed, and a linear response was obtained in the range of 0.25–500 ng/mL (VU357017, VU0152100, and F15599) and 1.25–2500 ng/mL (VU0238429) by spiking known amounts of each compound in blank brain homogenates and plasma. For VU0357017 and F15599 IS VU0152100 was used as internal standard. Sample concentration of internal standard was 100 ng/mL for IS VU0238429 and 50 ng/mL for IS VU0152100.

PCP-induced deficits = tested on: PCP-induced deficits; design: method as in PMID 20488670; conditions: cited from earlier work
rats = tested on: rats; design: method as in PMID 19154445; conditions: cited from earlier work
[1] = design: method as in PMID 31174329, PMID 19438238; conditions: earlier studies; cited from earlier work
[2] = F15599 0.025 mg/kg with VU0357017 1 mg/kg (subeffective doses)
[3] = acute, F15599 0.1 mg/kg with VU0357017 10 mg/kg
[4] = F15599 0.025 mg/kg with VU0238429 1 mg/kg (subeffective doses)
[5] = acute, F15599 0.1 mg/kg with VU0238429 5 mg/kg

CCOC(=O)N1CCC(NCCNC(=O)c2ccccc2C)CC1 [VU0357017]
Reversal of MK-801-induced reduction in spontaneous alternations in the Y-maze (MK-801-treated mice; 7 days with MK-801, 0.5 mg/kg): not | Reversal of MK-801-induced reduction in spontaneous alternations in the Y-maze (MK-801-treated mice; 7 days with MK-801, 1 mg/kg): not | Reversal of MK-801-induced reduction in spontaneous alternations in the Y-maze (MK-801-treated mice; 7 days with MK-801, 5 mg/kg): activity of VU0357017 was observed | Reversal of MK-801-induced disruptions in Y-maze by combined administration (MK-801-treated mice; [2]): did not reverse | Reversal of MK-801-induced reduction in spontaneous alternations in the Y-maze (MK-801-treated mice; acute, 1-10 mg/kg i.p.): No efficacy | Effect of combined administration on spontaneous alternations in the Y-maze test (MK-801-treated mice; [3]): no effect

Cc1cnc(CNCC2(F)CCN(C(=O)c3ccc(F)c(Cl)c3)CC2)nc1 [F15599]
Time after administration up to which drug was detected in the frontal cortex (in vivo; Albino Swiss): up to 2 h | Tmax (in vivo; Albino Swiss, ip, 0.1 mg/kg): 15 min | Tmax PFC (FC) (in vivo; Albino Swiss, ip, 0.1 mg/kg): 15 min | half-life (in vivo; Albino Swiss, ip, 0.1 mg/kg): 120 min | Cmax (in vivo; Albino Swiss, ip, 0.1 mg/kg, Cmax PFC (FC)): 48 ng/mL | Cmax (in vivo; Albino Swiss, ip, 0.1 mg/kg, Cmax plasma): 27 ng/mL | half-life (in vivo; ip, 0.1 mg/kg): 35 min | Effect on PCP-induced deficits during the reversal phase of the learning task and in the hole-board test (PCP-induced deficits): ameliorated | Reversal of MK-801-induced reduction in spontaneous alternations in the Y-maze (MK-801-treated mice; 7 days with MK-801, 0.025 mg/kg): ineffective | Reversal of MK-801-induced reduction in spontaneous alternations in the Y-maze (MK-801-treated mice; 7 days with MK-801, 0.05 mg/kg): ineffective | Reversal of MK-801-induced reduction in spontaneous alternations in the Y-maze (MK-801-treated mice; 7 days with MK-801, 0.1 mg/kg): reversed | Reversal of MK-801-induced disruptions in Y-maze by combined administration (MK-801-treated mice; F15599 0.025 mg/kg with VU0152100 0.05 mg/kg (subeffective doses)): did not reverse | Reversal of MK-801-induced disruptions in Y-maze by combined administration (MK-801-treated mice; [4]): did not reverse | Reversal of MK-801-induced disruptions in Y-maze by combined administration (MK-801-treated mice; [2]): did not reverse | Reversal of MK-801-induced reduction in spontaneous alternations in the Y-maze (MK-801-treated mice; acute, 0.05-0.5 mg/kg i.p.): no efficacy | Effect of combined administration on spontaneous alternations in the Y-maze test (MK-801-treated mice; acute, F15599 0.1 mg/kg with VU0152100 1 mg/kg): no effect | Effect of combined administration on spontaneous alternations in the Y-maze test (MK-801-treated mice; [5]): no effect | Effect of combined administration on spontaneous alternations in the Y-maze test (MK-801-treated mice; [3]): no effect | Doses inducing some adverse effects related to serotonergic syndrome (rats): greater than 0.16 mg/kg

COc1ccc(CN2C(=O)C(=O)c3cc(OC(F)(F)F)ccc32)cc1 [VU0238429]
Brain penetration (whole brain) [1]: ≤ 8% | Reversal of MK-801-induced reduction in spontaneous alternations in the Y-maze (MK-801-treated mice; 7 days with MK-801, 0.5 mg/kg): not | Reversal of MK-801-induced reduction in spontaneous alternations in the Y-maze (MK-801-treated mice; 7 days with MK-801, 1 mg/kg): not | Reversal of MK-801-induced reduction in spontaneous alternations in the Y-maze (MK-801-treated mice; 7 days with MK-801, 5 mg/kg): active | Reversal of MK-801-induced disruptions in Y-maze by combined administration (MK-801-treated mice; [4]): did not reverse | Reversal of MK-801-induced reduction in spontaneous alternations in the Y-maze (MK-801-treated mice; acute, 5 mg/kg i.p.): ineffective | Reversal of MK-801-induced reduction in spontaneous alternations in the Y-maze (MK-801-treated mice; acute, 10 mg/kg i.p.): reversed | Reversal of MK-801-induced reduction in spontaneous alternations in the Y-maze (MK-801-treated mice; acute, 20 mg/kg i.p.): reversed | Effect of combined administration on spontaneous alternations in the Y-maze test (MK-801-treated mice; [5]): no effect
